Entries after “also recorded” stand apart in the source; their conditions may differ. Ends that are not written are not given here.
B1: CCL22: chemokine that binds the CCR4 receptor, involved in migration of regulatory T-cells (protein, UniProt O00626 25-93, looked up)
C-C motif chemokine 22: GPYGANMEDSVCCRDYVRYRLPLRVVKHFYWTSDSCPRPGVVLLTFRDKEICADPRVPWVKMILNKLSQ

Assays:
dendritic cells = experiment: CCL22 production by dendritic cells (ELISA); assay type: cell-based, murine; settings: LPS-matured DCs, soluble VIP
Description: Dendritic cells were isolated from murine bone marrow and cultured following standard procedures.
(§1) In the first two experiments, both GM-CSF and IL-4 were added to DC media (modified RPMI 1640) of bone marrow cell cultures during media changes on Days 0, 3 and 6. In the third experiment, the IL-4 was purposely omitted and GM-CSF was added in 5× concentration. On Day 6, CD11c+ DC cells were isolated using MACS cell sorting beads and plated in a 24-well plate at 100,000 cells/well. Five different groups of four wells each were analyzed and received treatment. […] A mature DC control group received only LPS. Three different groups were matured with LPS and received different concentrations of either soluble VIP or releasates of VIP microparticles or blank microparticles (using the 12.6 kDa polymer).
Dose Response Protocol: Soluble VIP was added in concentrations of 10^−6 M, 10^−8 M, and 10^−9 M to both immature DC groups and DCs matured with LPS. Twelve different groups were matured with LPS and received different concentrations of either blank porous, blank nonporous, VIP porous, or VIP nonporous microparticles (of the 12.6 kDa polymer). Microparticles were added in concentrations of either 2.77 mg/mL, 1.39 mg/mL, and 0.277 mg/mL. In a second DC culture, the low concentration of microparticles was reduced to 0.0556 mg/mL. […]

[1] = tested on: FoxP3, IL-10, RANKL, CCL-22 mRNA in periodontal tissues; experiment: Real-time PCR of markers in periodontal tissues of diseased mice; assay type: in vivo, mouse; settings: systemic injections at days −1, 7, 14, 21, 28
Description: To verify that Tregs are recruited toward microparticles that sustain release of CCL-22, formulations were administered into the periodontium of diseased mice. Briefly, mice were orally exposed to the periodontal pathogen A. actinomycetemcomitans (Aar) on day 0, and also received CCL-22 microparticles (CCL-22MPs) or blank (empty) microparticles (BlankMPs) in their periodontal pockets. Specifically, mice received microparticle injections at day −1, 10 and 20, mice treated with VIP injections received systemic injections at days −1, 7, 14, 21, 28. Untreated mice served as negative controls. At day 30, all mice were sacrificed and maxilla's were resected. […] FIG. 22A. […] Figure BIB. […] FIG. 22C.
In this experiment, artificial antigen presenting cells providing a CCL-22 controlled release formulation were injected into palatal gingival tissue of right molars of mice (n=3) at the times of −1, 10 and 20 days of periodontal infection. At 30 days, total RNA was extracted from periodontal tissues as previously described and analyzed for regulatory T-cell and periodontal disease factor. […]
Real-Time PCR Analysis. […] RealTime-PCR quantitative mRNA analyses will be done in a MiniOpticon system (BioRad, Hercules, CA), using SybrGreen Master Mix (Invitrogen), 100 nM specific primers, and 2.5 ng of cDNA in each reaction. […]

FoxP3+CD4+ T-cells = experiment: Chemotaxis of CD4+ T-cells through transwells toward treated DCs, FoxP3+ by flow cytometry; assay type: cell-based, mouse; settings: LPS
Description: as §1
Preliminary Protocol: Soluble VIP was added to the third group in concentration of 2.5×10^−8 M. Ten milligrams of microparticles were first incubated for 4-6 hours in media and 250 μL of releasates were added to each well. […]
For chemotaxis studies, in the first two experiments, both GM-CSF and IL-4 were added to DC media (modified RPMI 1640) of bone marrow cell cultures during media changes on Days 0, 3 and 6. […] Five different groups of four wells each were analyzed and received treatment. […]
CD4+ T-cells were isolated from the spleen and lymph nodes of a mouse using Dynal beads following the lab protocol. […] T Cells that flowed through were analyzed for FoxP3+ expression using flow cytometry.

[2] = tested on: mice infected with A. actinomycetemcomitans (periodontitis); experiment: Mouse periodontitis model with CCL-22 microparticles / systemic VIP, alveolar bone resorption and Treg recruitment; assay type: in vivo
Description: To this end, B6 mice (n=6) were infected orally with the periodontal pathogen A. actinomycetemcomitans (Aa) and treated with microparticles containing CCL-22 (CCL-22MPs) or empty microparticles (BlankMPs) according to the schedule outlined above. Additionally vasoactive intestinal peptide (VIP) was administered intraperitoneally. Mice receiving only PBS and the thickener carboxymethyl cellulose served as controls (Untreated). Experimental treatments were administered in the periodontal pocket of the right maxilla while left maxillae were used as internal negative controls in each mouse. Alveolar bone loss was quantified as the area between the cementoenamel junction (CEJ) and the alveolar bone crest (ABC) FIG. 23, CEJ and FIG. 23A, ABC). Alveolar bone levels are shown on the left (internal control, FIG. 23A LEFT) and right (BlankMP treated, FIG. 23A RIGHT) maxilla.

CD4+ T cells (CCR4) = experiment: In vitro transwell migration assay toward CCL22; assay type: cell-based, murine; settings: activated vs naïve CD4+ T cells
Excerpt: (* p<0.05, one-tailed Students ‘t’ test).
Simultaneously, the ability of CCL22 to attract murine T cells was examined. Expression of chemokine receptors for CCL22 (i.e., for example, the CCR4 receptor) are known to control the ability of cells to respond to CCL22 gradients. Moreover, there is evidence that only activated T cells express the CCR4 receptor. Baatar et al., Journal of Immunology 178: 4891-4900 (2007); Lim et al., Journal of Immunology 177:840-851 (2006); and Lee et al., Journal of Experimental Medicine 201:1037-1044 (2005); and FIG. 18A. […] FIG. 18B.

Molecule | CCL-22 production relative to mature DC control group (dendritic cells) | endogenous CCL-22 production [1] | percent of FoxP3+ cells recruited by DCs (FoxP3+CD4+ T-cells; DC precursors cultured with IL-4 and GM-CSF, soluble VIP 2.5×10^−8 M or releasates) | percent of FoxP3+ cells recruited by DCs (FoxP3+CD4+ T-cells; absence of IL-4, 5× GM-CSF) | alveolar bone resorption / bone loss ([2]; MPs at day −1, 10, 20, VIP systemic IP, day 30, vs BlankMPs / negative controls) | Treg (FoxP3+ cell) recruitment to gingival / periodontal tissues ([2]; mouse, in vivo) | T cell migration towards a CCL22 gradient (CD4+ T cells (CCR4))
vasoactive intestinal peptide (HSDAVFTDNYTRLRKQMAVKKYLNSILN; ends and bridges not checked; UniProt P01282 125-152, looked up) [VIP, neuropeptide of twenty-eight (28) amino acids in length originally isolated from the intestine] | similar | induced endogenous production of CCL-22 | recruited a higher percentage of FoxP3+ cells than DCs that only received LPS or releasates from blank particles | recruited the same percentage of FoxP3+ cells | significantly less alveolar bone resorption than BlankMPs | effectively induce Treg migration to periodontal tissues | 
B1 |  |  |  |  |  |  | significantly greater migration of activated regulatory and effector CD4+ T cells; also recorded: activated T cells (both regulatory and effector cell populations), but not naïve T cells, migrated towards a CCL22 gradient

Reference: patent US12397041B2, “Vasoactive intestinal peptide release from microparticles” (UNIVERSITY OF PITTSBURGH—OF THE COMMONWEALTH SYSTEM OF …, priority 2009, dated 2025)
